Test results from patent US10610520B2, “Heterocyclic compound” (Takeda Pharmaceutical Company Limited, priority 2016, dated 2020).

Target: T1, His-hMAGL (recombinant polyhistidine tagged human MAGL protein) (Homo sapiens, UniProt Q99685)
T1 construct: made in house; host or cells: E. coli BL21(DE3)
T1 sequence (Q99685 1-303): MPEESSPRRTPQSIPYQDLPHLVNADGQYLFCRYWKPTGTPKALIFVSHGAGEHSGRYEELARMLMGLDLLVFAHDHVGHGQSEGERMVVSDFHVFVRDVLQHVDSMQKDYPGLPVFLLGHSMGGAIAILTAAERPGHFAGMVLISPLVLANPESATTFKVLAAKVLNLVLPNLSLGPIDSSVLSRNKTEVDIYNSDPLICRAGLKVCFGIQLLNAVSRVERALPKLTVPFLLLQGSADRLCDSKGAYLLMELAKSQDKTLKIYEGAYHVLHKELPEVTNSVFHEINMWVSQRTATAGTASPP
Experiment: Measurement of MAGL inhibitory activity (arachidonic acid production from 2-arachidonylglycerol, RapidFire-mass spectrometry)
Assay type: biochemical
Conditions: MAGL inhibitory rate, test compound 10 μM, 60 min preincubation, 2-arachidonylglycerol substrate
Outline: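 Arachidonic acid formed was quantified by online solid-phase extraction and triple-quadrupole MS in negative SRM mode against a d8 internal standard. Reaction: recombinant His-hMAGL (7.5 ng/mL, pH 7.5 Tris buffer with Triton X-100 and BSA) plus 2-AG (5 μL of 150 μM stock) for 10 min at room temperature, quenched with 2% formic acid. Percent inhibition corrected for enzyme-free background.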

inhibition at 10 µM | % inhibition (10 μM) (10 µM) | SMILES
85% |  | O=C1CCC2(CN(C(=O)c3cc4cc(C(F)(F)F)ccc4s3)C2)N1 [Example 33, 2-((5-(trifluoromethyl)-1-benzothiophen-2-yl)carbonyl)-2,5-diazaspiro[3.4]octan-6-one]
91% |  | O=C1CCC2(CN(C(=O)[C@H]3C[C@@H](COc4ccc(F)cc4Cl)C3)C2)N1 [Example 25, 2-((cis-3-((2-chloro-4-fluorophenoxy)methyl)cyclobutyl)carbonyl)-2,5-diazaspiro[3.4]octan-6-one]
85% |  | O=C1CCC2(CN(C(=O)c3ccc(-c4ccc5sc(C(F)(F)F)nc5c4)cc3)C2)N1 [Example 65, 2-(4-(2-(trifluoromethyl)-1,3-benzothiazol-5-yl)benzoyl)-2,5-diazaspiro[3.4]octan-6-one]
90% |  | O=C1CCC2(CN(C(=O)c3ccc(-c4ccccc4)c(Cl)c3)C2)N1 [Example 119, 2-((2-chlorobiphenyl-4-yl)carbonyl)-2,5-diazaspiro[3.4]octan-6-one]
101% |  | O=C1NC2(CO1)CN(C(=O)c1sc3cc(OC(F)F)ccc3c1Cl)C2 [Example 259, 2-((3-chloro-6-(difluoromethoxy)-1-benzothiophen-2-yl)carbonyl)-7-oxa-2,5-diazaspiro[3.4]octan-6-one]
100% |  | O=C1CCC2(CN(C(=O)N3CC(COc4ccc5c(c4)CCCC5)C3)C2)N1 [Example 18, 2-((3-((5,6,7,8-tetrahydronaphthalen-2-yloxy)methyl)azetidin-1-yl)carbonyl)-2,5-diazaspiro[3.4]octan-6-one]
95% |  | O=C1CCC2(CN(C(=O)c3ccc(-c4ccc5c(c4)OCC5)cc3)C2)N1 [Example 74, 2-(4-(2,3-dihydro-1-benzofuran-6-yl)benzoyl)-2,5-diazaspiro[3.4]octan-6-one]
99% |  | Cc1ccccc1-c1ccc2c(Cl)c(C(=O)N3CC4(CCC(=O)N4)C3)sc2c1 [Example 185, 2-((3-chloro-6-(2-methylphenyl)-1-benzothiophen-2-yl)carbonyl)-2,5-diazaspiro[3.4]octan-6-one]
88% |  | O=C1CCC2(CN(C(=O)c3ccc(-c4ccccc4)cc3OC(F)(F)F)C2)N1 [Example 172, 2-((3-(trifluoromethoxy)biphenyl-4-yl)carbonyl)-2,5-diazaspiro[3.4]octan-6-one]
102% |  | O=C1CCC2(CN(C(=O)N3CCC(Cc4ccc(Cl)cc4C(F)(F)F)CC3)C2)N1 [Example 105, 2-((4-(4-chloro-2-(trifluoromethyl)benzyl)piperidin-1-yl)carbonyl)-2,5-diazaspiro[3.4]octan-6-one]
101% |  | Cc1ccc(F)cc1-c1ccc2c(Cl)c(C(=O)N3CC4(CCC(=O)N4)C3)sc2c1 [Example 205, 2-((3-chloro-6-(5-fluoro-2-methylphenyl)-1-benzothiophen-2-yl)carbonyl)-2,5-diazaspiro[3.4]octan-6-one]
88% |  | O=C1CCC2(CN(C(=O)c3ccc4scc(-c5ccc(F)cc5)c4c3)C2)N1 [Example 175, 2-((3-(4-fluorophenyl)-1-benzothiophen-5-yl)carbonyl)-2,5-diazaspiro[3.4]octan-6-one]
92% |  | O=C1CCC2(CN(C(=O)c3ccc(-c4cc(F)ccc4Cl)cc3)C2)N1 [Example 79, 2-((2′-chloro-5′-fluorobiphenyl-4-yl)carbonyl)-2,5-diazaspiro[3.4]octan-6-one]
 | 99% | O=C1NC2(CCN(C(=O)c3sc4cc(Cl)cc(Cl)c4c3Cl)C2)CO1 (stereo not shown) [Example 327, 7-((3,4,6-trichloro-1-benzothiophen-2-yl)carbonyl)-3-oxa-1,7-diazaspiro[4.4]nonan-2-one]
102% |  | O=C1CCC2(CN(C(=O)N3CC(COc4ccc5c(c4)CCC5)C3)C2)N1 [Example 19, 2-((3-((2,3-dihydro-1H-inden-5-yloxy)methyl)azetidin-1-yl)carbonyl)-2,5-diazaspiro[3.4]octan-6-one]
101% |  | O=C1NC2(CO1)CN(C(=O)c1sc3ccc(OC(F)(F)F)cc3c1C(F)F)C2 [Example 300, 2-((3-(difluoromethyl)-5-(trifluoromethoxy)-1-benzothiophen-2-yl)carbonyl)-7-oxa-2,5-diazaspiro[3.4]octan-6-one]
100% |  | O=C1NC2(CO1)CN(C(=O)c1sc3cc(OC(F)(F)F)ccc3c1C(F)F)C2 [Example 264, 2-((3-(difluoromethyl)-6-(trifluoromethoxy)-1-benzothiophen-2-yl)carbonyl)-7-oxa-2,5-diazaspiro[3.4]octan-6-one]

inhibition at 10 µM | % inhibition (10 μM) (10 µM) | SMILES
99% |  | O=C1CCC2(CN(C(=O)c3sc4cc(-c5ccc(F)c(Cl)c5)ccc4c3Cl)C2)N1 [Example 226, 2-((3-chloro-6-(3-chloro-4-fluorophenyl)-1-benzothiophen-2-yl)carbonyl)-2,5-diazaspiro[3.4]octan-6-one]
99% |  | CC(C)c1cccc(-c2ccc3c(Cl)c(C(=O)N4CC5(CCC(=O)N5)C4)sc3c2)c1 [Example 188, 2-((3-chloro-6-(3-isopropylphenyl)-1-benzothiophen-2-yl)carbonyl)-2,5-diazaspiro[3.4]octan-6-one]
100% |  | O=C1CCC2(CN(C(=O)N3CC(COc4ccc(C(F)(F)F)cc4F)C3)C2)N1 [Example 8, 2-((3-((2-fluoro-4-(trifluoromethyl)phenoxy)methyl)azetidin-1-yl)carbonyl)-2,5-diazaspiro[3.4]octan-6-one]
104% |  | O=C1CCC2(CN(C(=O)N3CCC(Cc4cc(C(F)(F)F)cc(C(F)(F)F)c4)CC3)C2)N1 [Example 108, 2-((4-(3,5-bis(trifluoromethyl)benzyl)piperidin-1-yl)carbonyl)-2,5-diazaspiro[3.4]octan-6-one]
97% |  | O=C1CCC2(CN(C(=O)c3ccc(-c4cc(OC(F)(F)F)ccc4F)cc3)C2)N1 [Example 61, 2-((2′-fluoro-5′-(trifluoromethoxy)biphenyl-4-yl)carbonyl)-2,5-diazaspiro[3.4]octan-6-one]
80% |  | O=C1CCC2(CN(C(=O)c3cc4ccc(-c5ccc(Cl)cc5)cc4o3)C2)N1 [Example 169, 2-((6-(4-chlorophenyl)-1-benzofuran-2-yl)carbonyl)-2,5-diazaspiro[3.4]octan-6-one]
98% |  | O=C1CCC2(CN(C(=O)c3sc4cc(-c5cccc(OC(F)(F)F)c5)ccc4c3Cl)C2)N1 [Example 201, 2-((3-chloro-6-(3-(trifluoromethoxy)phenyl)-1-benzothiophen-2-yl)carbonyl)-2,5-diazaspiro[3.4]octan-6-one]
97% |  | O=C1CCC2(CN(C(=O)c3ccc(-c4ccc5sncc5c4)cc3)C2)N1 [Example 72, 2-(4-(1,2-benzothiazol-5-yl)benzoyl)-2,5-diazaspiro[3.4]octan-6-one]
101% |  | O=C1CCC2(CN(C(=O)N3CCC(C(c4ccccc4)c4ccccc4)CC3)C2)N1 [Example 112, 2-((4-(diphenylmethyl)piperidin-1-yl)carbonyl)-2,5-diazaspiro[3.4]octan-6-one]
94% |  | O=C1CCC2(CN(C(=O)c3ccc(-c4ccc5c(c4)CCO5)cc3)C2)N1 [Example 95, 2-(4-(2,3-dihydro-1-benzofuran-5-yl)benzoyl)-2,5-diazaspiro[3.4]octan-6-one]
101% |  | CC(Oc1ccc(C(F)(F)F)cc1F)C1CN(C(=O)N2CC3(CCC(=O)N3)C2)C1 (stereo not shown) [Example 10, 2-((3-(1-(2-fluoro-4-(trifluoromethyl)phenoxy)ethyl)azetidin-1-yl)carbonyl)-2,5-diazaspiro[3.4]octan-6-one]
98% |  | O=C1CCC2(CN(C(=O)N3CCC(Cc4ccc(C(F)(F)F)cc4Cl)CC3)C2)N1 [Example 107, 2-((4-(2-chloro-4-(trifluoromethyl)benzyl)piperidin-1-yl)carbonyl)-2,5-diazaspiro[3.4]octan-6-one]
96% |  | O=C1CCC2(CN(C(=O)c3ccc(-c4ccc(C(F)(F)F)cc4F)cc3)C2)N1 [Example 46, 2-((2′-fluoro-4′-(trifluoromethyl)biphenyl-4-yl)carbonyl)-2,5-diazaspiro[3.4]octan-6-one]
100% |  | O=C1NC2(CO1)CN(C(=O)c1sc3cc(C(F)(F)F)cc(OC(F)F)c3c1Cl)C2 [Example 305, 2-((3-chloro-4-(difluoromethoxy)-6-(trifluoromethyl)-1-benzothiophen-2-yl)carbonyl)-7-oxa-2,5-diazaspiro[3.4]octan-6-one]
99% |  | O=C1CCC2(CN(C(=O)c3ccc(-c4ccc(Cl)c(C(F)(F)F)c4)cc3)C2)N1 [Example 52, 2-((4′-chloro-3′-(trifluoromethyl)biphenyl-4-yl)carbonyl)-2,5-diazaspiro[3.4]octan-6-one]
100% |  | Cc1c(C(=O)N2CC3(COC(=O)N3)C2)sc2cc(-c3c(F)cccc3F)ccc12 [Example 351, 2-((6-(2,6-difluorophenyl)-3-methyl-1-benzothiophen-2-yl)carbonyl)-7-oxa-2,5-diazaspiro[3.4]octan-6-one]
93% |  | O=C1CCC2(CN(C(=O)c3sc(-c4ccc(OC(F)(F)F)cc4)cc3Cl)C2)N1 [Example 249, 2-((3-chloro-5-(4-(trifluoromethoxy)phenyl)-2-thienyl)carbonyl)-2,5-diazaspiro[3.4]octan-6-one]
